Measured values: patent US9611453B2, “Micromechanical devices for control of cell-cell interaction, and methods of use thereof” (The Regents of the University of California, priority 2007, dated 2017)

Columns and labels:
3T3 fibroblasts = experiment: Viability assay of hepatocyte / 3T3 fibroblast co-culture after drug exposure, populations separated on micromechanical substrates; format: cell-based, murine
Text: FIG. 13 depicts population-specific readout or selective interrogation. Hepatocytes and 3T3 fibroblasts are co-cultured to maintain hepatocyte differentiation. In (A) the drug Pyrilamine is introduced while the cells are in co-culture. By using the micromechanical substrates, the two cell populations are separated prior to viability assay, allowing the viability of each cell type to be assessed independently. […] In (B) the effect of the drug Methapyrilamine is compared when the cells are in co-culture or when the 3T3 are alone.
In another embodiment, in addition to the selective stimulation described above, one can separate a subpopulation of cells from a culture in order to assay those cells specifically; this is known as selective interrogation. One example of selective interrogation is shown in FIG. 11, where SEC cells are separated out from a culture of many cell types, and a Western Blot is performed on the purified SEC population. Another example is in FIG. 15, where hepatocytes and 3T3 fibroblasts are separated before viability assays are performed on each population.

[1] = tested on: liver sinusoidal endothelial cells (LSEC); experiment: SE-1 expression of cultured LSEC (immunohistochemistry and Western blotting); format: cell-based; details: primary rat LSEC cultured in the presence of OV, day 3
Method: For example, immunohistochemistry and Western blotting were used to characterize expression of the specific EC markers RECA, SE-1, PECAM and AcLDL in isolated primary rat LSECs were cultured under the following conditions: a) on the different ECM proteins including, Collagen-I, Fibronectin, Laminin, and Collagen-IV; b) with various combinations of supportive cells, using the micromechanical reconfigurable culture method described herein to enable tracking of individual cell types, separation into pure populations for analysis, and deconvolution of contact-mediated versus soluble signals; and c) in the presence of the tyrosine phosphatase inhibitor, orthovanadate (OV).
In addition, the co-culture of LSEC with hepatocytes or fibroblast-stabilized hepatocytes induced LSEC proliferation as well as the activation of the transcription factor STAT-1.

LSEC = details: previously demonstrated (Fujimoto, H. et al. 2006); cited from earlier work

CN(C)CCN(Cc1cccs1)c1ccccn1 [Methapyrilamine]
sensitivity of 3T3 to the toxic effects, co-culture versus 3T3 alone (3T3 fibroblasts; 3T3 in co-culture with hepatocytes or alone, FIG. 13B): more sensitive to the toxic effects of the drug when alone

[O]=[V]([O-])([O-])[O-] [OV, orthovanadate]
SE-1 expression [1]: strongly maintaining
LSEC apoptosis (LSEC): inhibited LSEC apoptosis

COc1ccc(CN(CCN(C)C)c2ccccn2)cc1 [Pyrilamine]
sensitivity to the toxic effects (viability), 3T3 versus hepatocytes (3T3 fibroblasts; drug introduced while hepatocytes and 3T3 are in co-culture, populations separated prior to viability assay, FIG. 13A): 3T3 are shown to be more sensitive
